# Like-named read-outs stand apart in the source and are kept apart here.
# Target: T1, T. urticae AChE (TuAChE) (Tetranychus cinnabarinus, UniProt M9T420)
# T1 construct: gene ace1; methods also mention mite extracts
# T1 sequence (M9T420 1-687): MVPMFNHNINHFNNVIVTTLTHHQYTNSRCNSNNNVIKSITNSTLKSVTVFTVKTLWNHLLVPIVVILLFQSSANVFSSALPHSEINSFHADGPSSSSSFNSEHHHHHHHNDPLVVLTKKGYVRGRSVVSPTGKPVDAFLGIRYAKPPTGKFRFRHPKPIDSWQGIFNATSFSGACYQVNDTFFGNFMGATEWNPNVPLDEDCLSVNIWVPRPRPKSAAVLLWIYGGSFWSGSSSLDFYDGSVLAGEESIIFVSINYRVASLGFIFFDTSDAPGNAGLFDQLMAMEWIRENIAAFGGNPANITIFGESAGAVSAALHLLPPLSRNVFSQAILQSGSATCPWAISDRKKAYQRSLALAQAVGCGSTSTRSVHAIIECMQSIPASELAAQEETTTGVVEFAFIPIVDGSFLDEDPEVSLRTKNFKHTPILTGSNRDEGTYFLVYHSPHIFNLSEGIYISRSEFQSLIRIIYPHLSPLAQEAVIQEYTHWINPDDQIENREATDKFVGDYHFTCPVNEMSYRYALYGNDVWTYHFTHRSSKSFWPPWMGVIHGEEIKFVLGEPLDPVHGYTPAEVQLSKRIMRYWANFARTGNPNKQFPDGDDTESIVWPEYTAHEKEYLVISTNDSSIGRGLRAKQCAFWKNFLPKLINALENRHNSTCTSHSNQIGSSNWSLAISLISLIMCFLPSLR
# Test: modified Ellman assay, […] nm
# Type: biochemical
SMILES,IC50 [mM],IC50 (read-out: IC50(mM) / TuAChE) [mM]
CNC(=O)Oc1ccc2c(c1)[C@]1(C)CCN(C)[C@@H]1N2C [eserine],3.81,–
"O=C(c1ccc2occc2c1)N1CCC(OCc2ccccc2)CC1 [compound 8, 1-(1-benzofuran-5-ylcarbonyl)-4-(benzyloxy) piperidine]",–,1.51

# From PMC10424716, “Discovery selective acetylcholinesterase inhibitors to control Tetranychus urticae (Acari: Tetranychidae)” (Journal of Insect Science, 2023)
